Assay results as given in patent US20210038570A1, “COMPOSITIONS AND METHODS FOR TREATING CUTANEOUS FIBROSIS” (Timber Pharmaceuticals, Inc., priority 2018, published 2021).

Assays:
[1] = tested on: donor one normal human dermal fibroblasts induced with TGF-β1; assay: Scratch (wound closure) assay, donor one NHDFs induced with TGF-β1; assay type: cell-based; details: for Scratch assay distance change: 50 ng/mL TGF-β1, 24 hours; for Effect on migration of fibroblasts (in words): donor one NHDFs, statistics at 100 μM vs vehicle control (FIG. 1)
Protocol: The effect of sitaxentan in a wound closure assay was measured using donor one normal human dermal fibroblasts induced with TGF-β1 into a profibrotic phenotype. […] For this assay the cells were grown to confluence, a scratch/ablation, i.e. “wound”, was created, and migration across the cleared zone was tracked. See, http://journals.plos.org/plosone/article?id=10.1371/journal.pone.0007438 and Wu, M. et al. Rosiglitazone abrogates bleomycin-induced scleroderma and blocks profibrotic responses through peroxisome proliferator-activated receptor-gamma. Am J Pathol174, 519-533, doi:10.2353/ajpath.2009.080574 (2009) donor one normal human dermal fibroblast cells (LLCT FC0024 lot 03869_ fibroblast) were seeded to confluence in 96 well plates in 10% fetal bovine serum (FBS) Dulbecco's modified eagle medium (DMEM). The cells were washed to remove the FBS, and serum free media was added for 16 hr overnight (O/N). Scratch assays were performed across each confluent monolayer. […] The cells were treated with increasing concentrations (1 μM, 3 μM, 10 μM, 30 μM, and 100 μM) of vehicle control, sitaxentan, and bosentan (as a comparator compound), in the presence of 50 ng/mL TGF-β1 to induce fibrogenesis. Six replicate samples were run for each concentration. Time zero images were taken and initial distance of the scratch/ablation recorded. The samples were incubated for 24 hours at 37° C., after which the media was removed and […] calcein acetoxymethyl (calcein AM) was added. The samples were incubated for 30 minutes. Images were taken and the distance of the scratch/ablation recorded. Decreases in distance indicated “wound” closure. Distances were calculated and analyzed using GraphPad Prism 7.

[2] = tested on: donor one normal human dermal fibroblasts induced with TGF-β1; assay: Collagen production, AlphaLISA hPIP assay; assay type: cell-based; details: for human procollagen Type I C-peptide (HPIP) level: 50 ng/mL TGF-β1, 48 hours; for Effect on elevated collagen levels (in words): statistics at 100 μM vs vehicle control and between groups (FIG. 3)
Protocol: The effect of sitaxentan on collagen production was measured in an AlphaLISA assay using donor one normal human dermal fibroblasts induced with TGF-β1 into a profibrotic phenotype. For this assay cells were grown for 48 hours in the presence of vehicle control, sitaxentan, and bosentan. See, http://www.perkinelmer.com/product/alphalisa-hpip-collagen-[…]. An AlphaLISA assay was used, which is a variation of FRET (Fluorescence resonance energy transfer) technology that allows for the detection of molecules of interest in a no-wash, highly sensitive, quantitative assay. In an AlphaLISA assay, a biotinylated anti-analyte antibody binds to Streptavidin-coated donor beads while another anti-analyte antibody is conjugated to AlphaLISA Acceptor beads. In the presence of the analyte, the beads come into close proximity. The excitation of the donor beads cause the release of singlet oxygen molecules that trigger a cascade of energy transfer in the acceptor beads, resulting in a sharp peak of light emission at 615 nm. donor one normal human dermal fibroblast cells (LLCT FC0024 lot 03869_ fibroblast) were seeded to confluence in 96 well plates in 10% fetal bovine serum (FBS) Dulbecco's modified eagle medium (DMEM). The cells were washed to remove the FBS, and serum free media was added overnight (O/N). The cells were then stimulated with 50 ng/mL TGF-β1 and treated. The supernatant media above the cells in the wells was collected and diluted 1:20 in serum-free DMEM media. 5 μL of each hPIP analyte standard or 5 μL of sample was added. 10 μL of 5× […] Acceptor beads was added (10 μg/mL final). The plate was incubated 30 minutes at 23° C. 10 μL of 5× Biotinylated Anti-hPIP Antibody was added (1 nM). The plate was incubated 60 minutes at 23° C. 25 μL of 2× Streptavidin-Donor beads were added (40 μg/mL final). The plate was incubated 30 minutes at 23° C. in the dark. The plate was read using a Perkin Elmer EnVision-Alpha Reader (615 nm). Data were analyzed using GraphPad Prism 7. Three to four replicates were run for each sample.

[3] = tested on: donor one normal human dermal fibroblasts induced with TGF-β1; assay: Cell viability assay (GF-AFC fluorescence); assay type: cell-based; details: 50 ng/mL TGF-β1, 48 hours
Protocol: (§1) The effect of sitaxentan on cell viability, cell cytotoxicity, and apoptosis was measured in an assay using donor one normal human dermal fibroblasts induced with TGF-β1 into a profibrotic phenotype. For these assays cells were grown for 48 hours in the presence of vehicle control, sitaxentan, and bosentan. The appropriate assay reagents and measuring techniques were used as indicated herein. donor one normal human dermal fibroblast cells (LLCT FC0024 lot 03869_ fibroblast) were seeded to confluence in 96 well plates in 10% fetal bovine serum (FBS) Dulbecco's modified eagle medium (DMEM). The cells were washed to remove the FBS, and serum free media is added overnight (O/N). The cells were then stimulated with 50 ng/mL TGF-β1 and treated for 48 hours. The following reagents were used for the different assays: For the cell viability/cytotoxicity assay: A master mix of the viability/cytotoxicity reagent was made by combining 10 uL of each substrate (GF-AFC and bis-AAF-R110) to 2 mLs of Assay Buffer (Promega, Cat #G6320). 20 μl of this viability/cytotoxicity reagent was then added to each well and briefly mixed. […] Data were analyzed using GraphPad Prism 7. Six to nine replicates were run for each sample.

[4] = tested on: donor one normal human dermal fibroblasts induced with TGF-β1; assay: Cell cytotoxicity assay (bis-AAF-R110 fluorescence); assay type: cell-based; details: for Cell cytotoxicity, relative fluorescence units: 50 ng/mL TGF-β1, 48 hours; for Cytotoxicity compared to the vehicle control (in words): statistics at 100 μM (FIG. 5); for Cytotoxicity, bosentan compared with sitaxentan (in words): statistics at 100 μM between groups (FIG. 5)
Protocol: as §1

[5] = tested on: donor one normal human dermal fibroblasts induced with TGF-β1; assay: Apoptosis assay (Caspase-Glo 3/7 luminescence); assay type: cell-based; details: for Apoptosis, relative light units: 50 ng/mL TGF-β1, 48 hours; for Effect on apoptosis (in words): statistics at 100 μM vs vehicle control and between groups (FIG. 6)
Protocol: The effect of sitaxentan on cell viability, cell cytotoxicity, and apoptosis was measured in an assay using donor one normal human dermal fibroblasts induced with TGF-β1 into a profibrotic phenotype. For these assays cells were grown for 48 hours in the presence of vehicle control, sitaxentan, and bosentan. The appropriate assay reagents and measuring techniques were used as indicated herein. donor one normal human dermal fibroblast cells (LLCT FC0024 lot 03869_ fibroblast) were seeded to confluence in 96 well plates in 10% fetal bovine serum (FBS) Dulbecco's modified eagle medium (DMEM). The cells were washed to remove the FBS, and serum free media is added overnight (O/N). The cells were then stimulated with 50 ng/mL TGF-β1 and treated for 48 hours. For the apoptosis assay: 100 μl of Caspase-Glo® 3/7 Reagent (Promega, Cat #G6320), for the apoptosis assay, was subsequently added after the viability/cytotoxicity fluorescent reads and briefly mixed. The plate was incubated for an additional 30 minutes at room temperature prior to the measurement of luminescence to detect apoptosis. Data were analyzed using GraphPad Prism 7. Six to nine replicates were run for each sample.

[6] = oral bosentan; cited from earlier work
[7] = in vivo; cited from earlier work

SMILES	Scratch assay distance change ([1]; 1 μM) [µm]	Scratch assay distance change ([1]; 3 μM) [µm]	Scratch assay distance change ([1]; 10 μM) [µm]	Scratch assay distance change ([1]; 30 μM) [µm]	Scratch assay distance change ([1]; 100 μM) [µm]	Effect on migration of fibroblasts (in words) [1]	human procollagen Type I C-peptide (HPIP) level ([2]; 1 μM) [ng/mL]	human procollagen Type I C-peptide (HPIP) level ([2]; 3 μM) [ng/mL]	human procollagen Type I C-peptide (HPIP) level ([2]; 10 μM) [ng/mL]	human procollagen Type I C-peptide (HPIP) level ([2]; 30 μM) [ng/mL]	human procollagen Type I C-peptide (HPIP) level ([2]; 100 μM) [ng/mL]	Effect on elevated collagen levels (in words) [2]	Cell viability, relative fluorescence units ([3]; 1 μM) [RFUs]	Cell viability, relative fluorescence units ([3]; 3 μM) [RFUs]	Cell viability, relative fluorescence units ([3]; 10 μM) [RFUs]	Cell viability, relative fluorescence units ([3]; 30 μM) [RFUs]	Cell viability, relative fluorescence units ([3]; 100 μM) [RFUs]	Cell cytotoxicity, relative fluorescence units ([4]; 1 μM) [RFUs]	Cell cytotoxicity, relative fluorescence units ([4]; 3 μM) [RFUs]	Cell cytotoxicity, relative fluorescence units ([4]; 10 μM) [RFUs]	also measured
COc1ccccc1Oc1c(NS(=O)(=O)c2ccc(C(C)(C)C)cc2)nc(-c2ncccn2)nc1OCCO [BOS]	478	356	359	535	414	no significant effect	8.2	8.6	7.9	7.1	6.8	significantly decreased elevated collagen levels	5406.8	5548.5	5521.2	5537.0	5584.3	4256.9	3954.2	3764.0	Cell cytotoxicity, relative fluorescence units ([4]; 30 μM): 4607.5 RFUs; Cell cytotoxicity, relative fluorescence units ([4]; 100 μM): 3929.0 RFUs; Cytotoxicity compared to the vehicle control (in words) [4]: neither bosentan nor sitaxentan was significantly more cytotoxic than the vehicle control; Cytotoxicity, bosentan compared with sitaxentan (in words) [4]: significantly more cytotoxic than sitaxentan; Apoptosis, relative light units ([5]; 1 μM): 39366.8 RLUs; Apoptosis, relative light units ([5]; 3 μM): 38639.8 RLUs; Apoptosis, relative light units ([5]; 10 μM): 38586.7 RLUs; Apoptosis, relative light units ([5]; 30 μM): 42825.2 RLUs; Apoptosis, relative light units ([5]; 100 μM): 43330.7 RLUs; Effect on apoptosis (in words) [5]: elevated; Cessation of treatment due to liver enzyme abnormalities, share of patients [6]: about 5%; Liver enzyme abnormalities, share of patients affected [6]: about 10%
Cc1cc2c(cc1CC(=O)c1sccc1S(=O)(=O)Nc1onc(C)c1Cl)OCO2 [SIT, N-(4-Chloro-3-methyl-5-isoxazolyl)-2-[(2-methyl-4,5-methylenedioxyphenyl)-acetyl]thiophene-3-sulfonamide]	506	557	496	494	269	significantly reduced the migration	7.0	7.1	6.4	5.8	2.2	significantly more efficacious than bosentan and returning collagen levels to untreated / uninduced levels	5678.3	5639.0	5600.5	5250.8	5171.0	4643.9	5058.3	4741.7	Cell cytotoxicity, relative fluorescence units ([4]; 30 μM): 3837.5 RFUs; Cell cytotoxicity, relative fluorescence units ([4]; 100 μM): 2911.3 RFUs; Cytotoxicity compared to the vehicle control (in words) [4]: neither bosentan nor sitaxentan was significantly more cytotoxic than the vehicle control; Cytotoxicity, bosentan compared with sitaxentan (in words) [4]: significantly less cytotoxic; Apoptosis, relative light units ([5]; 1 μM): 37593.4 RLUs; Apoptosis, relative light units ([5]; 3 μM): 39162.8 RLUs; Apoptosis, relative light units ([5]; 10 μM): 39512.0 RLUs; Apoptosis, relative light units ([5]; 30 μM): 46053.5 RLUs; Apoptosis, relative light units ([5]; 100 μM): 51050.2 RLUs; Effect on apoptosis (in words) [5]: significantly more potent effect than bosentan; Metabolism [7]: hepatic (CYP2C9- and CYP3A4-mediated); Protein binding [7]: > 99%
